Assay results from US20030153056A1, “Glycosyltransferase proteins” (priority 2000, published 2003).

Columns and labels:
[1] = molecular target: T1, Brainiac (Drosophila melanogaster, UniProt Q24157); assay: Initial analysis of Brainiac glycosyltransferase activity with monosaccharides and four UDP sugar nucleotides; type: biochemical; settings: panel of monosaccharides, donor UDP-GlcNAc, High Five cell microsomes
T1 construct: The full coding region of Brainiac was prepared by PCR using genomic DNA; made in house; host or cells: High Five insect cells (baculovirus vector pVL1393); microsomal fractions
T1 sequence (Q24157 1-325): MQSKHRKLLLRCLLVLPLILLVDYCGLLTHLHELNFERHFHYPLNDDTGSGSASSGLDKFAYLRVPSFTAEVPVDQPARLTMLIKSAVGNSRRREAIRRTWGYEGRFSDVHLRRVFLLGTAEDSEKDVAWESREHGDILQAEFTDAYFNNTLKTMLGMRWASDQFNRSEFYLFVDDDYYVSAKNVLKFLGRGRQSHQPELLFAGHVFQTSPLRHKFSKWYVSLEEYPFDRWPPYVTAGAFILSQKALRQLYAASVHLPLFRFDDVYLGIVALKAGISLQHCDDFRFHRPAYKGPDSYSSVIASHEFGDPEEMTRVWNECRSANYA
Experimental: (§1) Brainiac-full was cloned into baculovirus vector pVL1393 (Pharmingen) and expressed in High Five cells. Microsomal fractions were prepared as described above for Fringe but with 0.5% N-octylglucoside as Triton X-100 and related detergents destroyed the activity. Initial analysis of activity was done with five monosaccharides and four donor sugar nucleotides as described in FIG. 5 for Fringe. Assays with the acceptors listed in Table 1 were performed as described for Fringe except no additional detergent was added. Reactions with glycolipid substrates were performed in the presence of 0.5% N-octylglucoside in 50 ul reaction volume containing 10 μg glycolipid.
In the latter case the acceptor sugar was not determined.

[2] = molecular target: T2, Brainiac β1-3-N-acetylglucosaminyltransferase (Drosophila melanogaster, UniProt Q24157); assay: Substrate specificities of Brainiac β1-3-N-acetylglucosaminyltransferase (acceptor panel, microsomal preparations); type: biochemical; settings: microsomes of pVL-Brainiac infected High Five cells, background of irrelevant construct subtracted, donor UDP-GlcNAc
T2 construct: The full coding region of Brainiac was prepared by PCR using genomic DNA; made in house; host or cells: High Five insect cells (baculovirus vector pVL1393); microsomal fractions
T2 sequence (Q24157 1-325): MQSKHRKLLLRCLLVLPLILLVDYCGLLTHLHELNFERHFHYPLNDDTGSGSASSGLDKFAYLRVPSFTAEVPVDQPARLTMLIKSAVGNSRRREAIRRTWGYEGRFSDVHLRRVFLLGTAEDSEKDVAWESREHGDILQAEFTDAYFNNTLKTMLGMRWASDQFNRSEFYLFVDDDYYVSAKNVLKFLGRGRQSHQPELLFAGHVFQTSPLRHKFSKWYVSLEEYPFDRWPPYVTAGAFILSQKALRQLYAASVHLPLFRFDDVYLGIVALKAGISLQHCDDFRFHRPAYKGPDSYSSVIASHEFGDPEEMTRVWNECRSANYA

[3] = molecular target: T3, Fringe (Drosophila melanogaster, UniProt Q24342); assay: Fringe glycosyltransferase assay, transfer of 14C-labelled UDP-donor sugars onto acceptor sugars; type: biochemical; settings: for Acceptor for Fringe, in words: microsomal fractions of High Five cells
T3 construct: made in house; host or cells: High Five insect cells (baculovirus vector pVL1393); solubilised microsomal fractions
T3 sequence (Q24342 1-412): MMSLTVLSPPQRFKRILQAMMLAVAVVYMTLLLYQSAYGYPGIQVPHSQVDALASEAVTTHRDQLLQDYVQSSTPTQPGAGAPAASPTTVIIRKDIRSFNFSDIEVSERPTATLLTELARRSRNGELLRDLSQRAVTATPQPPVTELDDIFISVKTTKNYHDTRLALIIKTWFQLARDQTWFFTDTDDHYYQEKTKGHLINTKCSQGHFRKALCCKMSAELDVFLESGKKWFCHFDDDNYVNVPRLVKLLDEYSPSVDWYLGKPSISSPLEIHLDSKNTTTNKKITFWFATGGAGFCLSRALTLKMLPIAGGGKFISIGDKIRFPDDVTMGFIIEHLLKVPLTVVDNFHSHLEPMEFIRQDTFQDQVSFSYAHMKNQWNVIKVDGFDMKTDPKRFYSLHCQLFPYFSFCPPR
Experimental: Fringe-Myc and Fringe-NNN-myc were cloned into baculovirus vector pVL1393 (Pharmingen) and expressed in High Five™ cells. Microsomal fractions were prepared by hypotonic lysis ultracentrifugation and solubilised 1:2 (vol/vol) in 20 mM Cacodylate pH 6.5, 1% Triton-CF54, 5 MM MnCl2 containing Leupeptin and Aprotinin as described previously (Amado et al., 1998). For glycosyltransferase assays, 5 μl of this suspension were added to a total of 50 μl reaction mixture containing 25 mM Cacodylate pH 6.5, 0.25% Triton-CF54, 5 mM MnCl2, 500 mM free sugar, 100 μM UDP-^14C-sugar (1280-2000 cpm/nmol). Reactions were incubated at 37° C. for 45-60 minutes, followed by Dowex-1 anion exchange chromatography and scintillation counting of 50% of the flow-through.
To ask whether Fringe has intrinsic glycosyltransferase activity, Fringe-wt and Fring-NNN were produced by baculovirus-infection of insect cells. Microsomal fractions enriched for Golgi membranes were partially solubilized and assayed for the ability to the expressed proteins to catalyze the transfer of ^14C-labelled UDP-donor sugars onto acceptor sugars. A variety of different donor/acceptor combinations were tested (FIG. 5b).
Enzyme activity was measured by transfer of ^14C-labelled donor sugars (as UDP-conjugates) onto acceptor sugars. In FIG. 5b, average results from two experiments are shown. Donors tested were UDP-Glucose (Glc), UDP-Galactose (Gal), UDP-N-acetyl-Glucosamine (GlcNAc) and N-acetyl-Galactosamine (GalNAc). Acceptors tested were Glucose, Galactose, GlcNAc, GalNAc and Fucose.

[4] = molecular target: T1, Brainiac; assay: Brainiac activity towards glycosphingolipids; type: biochemical; settings: 10 μg purified glycolipid, 300 μM UDP-14C-N-acetylglucosamine, FIG. 8
Experimental: FIG. 8: Brainiac activity towards glycosphingolipids purified from insect cells. Microsomal fractions (1.5 mg) of insect cells transfected with pVL-brainiac and pVL-fringe were used as the enzyme source. Reactions contained 10 μg of purified glycolipids and 300 μM of UDP-^14C-N-acetylglucosamine (8200 cpm/nmol). Products were purified on C18-silica cartridges, spotted on HPTLC-plates, developed in 60:35:8 (chloroform:methanol:water) and exposed for autoradiography.
as §1
Glycolipids were obtained from Sigma or purified from High Five insect cells grown in serum free medium. […]

[5] = molecular target: T4, human β3GnT2 (Homo sapiens, UniProt Q9NY97); assay: human β3GnT2 activity with glycolipid acceptors; type: biochemical; settings: not shown
T4 sequence (Q9NY97 1-397): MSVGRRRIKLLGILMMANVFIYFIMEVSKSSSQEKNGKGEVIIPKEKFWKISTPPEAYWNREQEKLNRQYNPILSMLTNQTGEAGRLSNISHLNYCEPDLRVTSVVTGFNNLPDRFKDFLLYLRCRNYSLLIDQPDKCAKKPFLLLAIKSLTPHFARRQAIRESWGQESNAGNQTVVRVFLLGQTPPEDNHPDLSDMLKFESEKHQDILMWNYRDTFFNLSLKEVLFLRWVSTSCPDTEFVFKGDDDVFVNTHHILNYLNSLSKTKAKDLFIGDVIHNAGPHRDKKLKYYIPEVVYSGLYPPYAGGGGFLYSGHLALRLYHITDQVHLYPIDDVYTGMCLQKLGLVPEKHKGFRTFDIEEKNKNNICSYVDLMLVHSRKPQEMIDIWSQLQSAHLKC
From the text: It is interesting to note that Brainiac also functions with Lac-Cer, a glycolipid which has never been described from insects. Brainiac is the ancestral gene of a very large homologous β3glycosyltransferase gene family in mammalian cells, and the members of this family with closest sequence similarity to Brainiac is represented by a family of β3GlcNAc-transferases with similar specificity for Lac-Cer (Shiraishi et al., 2001, J. Biol. Chem., 276: 3498-3507.). One of these designated human β3GnT2 was analysed in detail and shown to use Lac-Cer but not Mac-Cer (not shown).

[6] = molecular target: T5, Notch (Drosophila melanogaster, UniProt P07207); assay: Delta-AP binding to Notch transfected S2 cells; type: cell-based; settings: co-expressed with Notch in S2 cells
T5 construct: expressed in transfected cells; host or cells: Drosophila Schneider S2 cells, transient transfection, pRmHa3
Experimental: Cell culture and Binding assays: cDNAs for expression in Schneider S2 cells were cloned into pRmHa3. Cells were transiently transfected by the CaPO4 method using 6-8 μg of DNA per well in 6 well plates. Expression was induced by addition of 0.7 mM CuSO4 for 2 days. Conditioned medium was collected from Notch-AP and Delta-AP transfected cells 2 days after induction. AP activity was adjusted to normalise activity levels of Notch-AP or Delta-AP expressed with or without Fringe. Binding was performed as described in Cheng and Flanagan, 1994. In brief, AP-containing supernatants were supplemented with 0.1% NaN3, and incubated 90 min at room temperature. Cells were washed 5 times in HBSS containing 0.05% BSA and 0.1% azide, and lysed in 10 mM Tris pH 8, 1% Triton-X100. Endogenous AP was inactivated by heat treatment for 10 min 60° C. and the lysates clarified by centrifugation. AP activity was measured in 1M Diethanolamine, 1 mM MgCl2, 5 mM para-nitrophenyl phosphate. Bound AP activity was quantified in 96 well plates using a microplate reader and Micromanager software (BioRad). An additional replicate of each transfection was prepared for immunoblot analysis. Lysates were prepared separately for Immunoblot analysis to allow inclusion of protease inhibitors which are not used in the binding assay. To measure interaction of Delta-AP with transiently transfected S2 cells, bound AP activity was quantified in an enzymatic colour reaction. Cells transfected with empty vector were used as a control. […] AP activity is shown in mOD units/minute in cell extracts (replicate experiments are shown in this figure). In this experiment Fringe stimulated binding by over 50 fold. […] However, the assay allows measurement of Fringe-dependent stimulation of Delta-AP binding.

[7] = system: Notch activation in the wing imaginal disc; assay: Ectopic expression under patched GAL4 control in wing imaginal disc, Wingless expression; type: in vivo, Drosophila; settings: expressed under patched GAL4 control
From the text: (e), (f), (g) Wing imaginal discs labelled to visualise Wingless protein (left panel) and the myc epitope tag (right panel). (e) patched^GAL4/+wing disc. Wingless is expressed in a continuous stripe along the DV boundary. (f) patched^GAL4/UAS-Fringe-GalNT3-myc. Golgi-tethered Fringe-GalNT3-myc expression in the patched^GAL4 stripe is shown in the right-hand panel. The endogenous Wingless stripe is interrupted where the Golgi-tethered Fringe stripe crosses the DV boundary (left panel). At the anterior-posterior compartment boundary the Golgi-tethered Fringe stripe abuts the endogenous Wingless stripe and induces ectopic expression of Wingless in the ventral compartment. This pattern is identical to that reported for ectopic expression of wild-type (secreted) Fringe shown in panel (g) for the Golgi-tethered Fringe D: dorsal compartment. V ventral compartment. Posterior is to the right. […] These effects precisely match those caused by expression of wild-type Fringe (not shown; see Panin et al., 1997; Kim et al., 1995). […] Cells were transfected to express Notch, wild-type Fringe-wt-myc, or mutant Fringe-NNN-myc as indicated. Cells transfected with empty vector were used as a control. Fringe-NNN-Myc has no activity in the binding assay, despite being expressed at higher levels than Fringe-wt-Myc.

T5 sequence (P07207 53-2703): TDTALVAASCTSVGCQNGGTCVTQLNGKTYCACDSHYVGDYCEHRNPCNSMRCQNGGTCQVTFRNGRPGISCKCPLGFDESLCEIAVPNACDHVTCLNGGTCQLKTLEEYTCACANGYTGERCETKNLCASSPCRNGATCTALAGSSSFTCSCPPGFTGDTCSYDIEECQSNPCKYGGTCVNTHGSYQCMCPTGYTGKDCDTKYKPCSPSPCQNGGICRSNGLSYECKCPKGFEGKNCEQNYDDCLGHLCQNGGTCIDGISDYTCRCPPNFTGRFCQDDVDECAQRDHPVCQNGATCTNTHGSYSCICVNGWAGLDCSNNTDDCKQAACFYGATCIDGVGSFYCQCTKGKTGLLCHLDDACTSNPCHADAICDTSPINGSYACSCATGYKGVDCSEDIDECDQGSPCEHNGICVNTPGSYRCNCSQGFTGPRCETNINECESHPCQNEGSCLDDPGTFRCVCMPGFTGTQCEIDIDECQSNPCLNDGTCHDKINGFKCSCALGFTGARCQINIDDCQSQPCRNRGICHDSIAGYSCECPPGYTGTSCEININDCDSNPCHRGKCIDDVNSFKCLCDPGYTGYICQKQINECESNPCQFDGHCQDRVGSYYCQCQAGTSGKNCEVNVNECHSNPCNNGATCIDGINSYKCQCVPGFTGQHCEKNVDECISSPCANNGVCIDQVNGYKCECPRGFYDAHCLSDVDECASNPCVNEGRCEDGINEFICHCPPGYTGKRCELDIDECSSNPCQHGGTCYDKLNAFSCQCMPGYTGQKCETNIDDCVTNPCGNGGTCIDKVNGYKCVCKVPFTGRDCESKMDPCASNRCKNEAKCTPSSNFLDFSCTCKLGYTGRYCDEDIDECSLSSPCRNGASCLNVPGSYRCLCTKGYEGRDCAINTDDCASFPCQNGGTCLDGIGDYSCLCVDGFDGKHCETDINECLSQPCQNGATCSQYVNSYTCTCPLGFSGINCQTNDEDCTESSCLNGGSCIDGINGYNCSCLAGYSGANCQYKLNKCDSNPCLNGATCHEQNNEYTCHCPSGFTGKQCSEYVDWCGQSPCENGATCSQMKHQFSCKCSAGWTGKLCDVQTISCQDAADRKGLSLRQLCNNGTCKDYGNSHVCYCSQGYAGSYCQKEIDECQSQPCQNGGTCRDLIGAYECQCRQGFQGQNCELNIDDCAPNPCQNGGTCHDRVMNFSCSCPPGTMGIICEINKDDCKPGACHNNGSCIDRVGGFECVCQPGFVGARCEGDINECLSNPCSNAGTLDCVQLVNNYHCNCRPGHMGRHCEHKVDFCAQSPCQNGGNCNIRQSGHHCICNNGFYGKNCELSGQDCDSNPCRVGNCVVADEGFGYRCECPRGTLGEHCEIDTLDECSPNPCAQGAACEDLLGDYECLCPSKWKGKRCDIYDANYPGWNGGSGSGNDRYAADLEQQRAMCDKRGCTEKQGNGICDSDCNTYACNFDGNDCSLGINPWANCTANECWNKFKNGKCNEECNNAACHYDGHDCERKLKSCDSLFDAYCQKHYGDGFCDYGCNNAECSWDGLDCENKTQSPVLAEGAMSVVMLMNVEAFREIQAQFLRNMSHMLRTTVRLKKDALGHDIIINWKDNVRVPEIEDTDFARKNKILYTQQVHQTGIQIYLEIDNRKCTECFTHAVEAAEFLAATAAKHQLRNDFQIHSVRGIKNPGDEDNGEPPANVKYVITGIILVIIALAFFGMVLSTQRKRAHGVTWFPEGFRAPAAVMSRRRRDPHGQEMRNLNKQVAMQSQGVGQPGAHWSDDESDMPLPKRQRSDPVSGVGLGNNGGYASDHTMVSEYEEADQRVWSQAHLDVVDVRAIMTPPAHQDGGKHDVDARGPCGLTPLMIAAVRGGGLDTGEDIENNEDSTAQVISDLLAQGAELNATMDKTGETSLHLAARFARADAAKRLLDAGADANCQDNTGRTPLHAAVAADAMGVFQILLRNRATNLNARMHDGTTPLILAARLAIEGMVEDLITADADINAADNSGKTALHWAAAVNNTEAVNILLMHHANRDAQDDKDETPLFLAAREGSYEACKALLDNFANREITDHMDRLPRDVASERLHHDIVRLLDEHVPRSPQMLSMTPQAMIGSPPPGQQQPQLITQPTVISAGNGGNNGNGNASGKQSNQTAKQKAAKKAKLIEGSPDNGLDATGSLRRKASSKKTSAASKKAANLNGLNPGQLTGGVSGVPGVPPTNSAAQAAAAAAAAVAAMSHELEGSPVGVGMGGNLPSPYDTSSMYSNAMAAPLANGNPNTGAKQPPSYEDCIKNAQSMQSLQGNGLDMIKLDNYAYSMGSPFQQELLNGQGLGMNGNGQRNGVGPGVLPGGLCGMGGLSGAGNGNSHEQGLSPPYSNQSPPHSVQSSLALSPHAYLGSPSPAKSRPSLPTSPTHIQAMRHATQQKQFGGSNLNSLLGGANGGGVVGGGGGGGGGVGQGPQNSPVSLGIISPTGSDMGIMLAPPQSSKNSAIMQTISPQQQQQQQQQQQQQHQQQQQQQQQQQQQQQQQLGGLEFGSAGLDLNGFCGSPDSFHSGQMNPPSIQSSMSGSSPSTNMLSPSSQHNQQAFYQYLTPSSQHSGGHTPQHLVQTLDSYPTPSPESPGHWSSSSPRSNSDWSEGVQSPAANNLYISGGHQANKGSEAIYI

Q: Which results are given for `OC[C@H]1OC(O)[C@@H](O)[C@@H](O)[C@@H]1O` (stereo partly drawn) [D-Man]?
A: Acceptor for Brainiac, in words (initial analysis) [1]: best acceptor; Brainiac activity with substrate ([2]; substrate 2 mM): 0.28 nmol/h/mg; Brainiac activity with substrate ([2]; substrate 20 mM): 1.70 nmol/h/mg

Q: `C[C@H](O)[C@@H](O)[C@@H](O)[C@H](O)C=O` [Fucose] was tested. Which “Glycosyltransferase activity of Fringe-wt microsome lysate over background level observed with Fringe-NNN” value ([3]; donor UDP-N-acetylglucosamine (GlcNAc), average of two experiments, FIG. 5b) did it give?
A: The value was 18 fold.

Q: With `C[C@@H]1OC(O)[C@@H](O)[C@H](O)[C@@H]1O` (stereo partly drawn) [L-Fuc] as the molecule, how does the “Acceptor for Brainiac, in words (initial analysis)” value [1] read?
A: Its value is “poor substrate”.

Q: And the “Brainiac activity with substrate” value ([2]; substrate 2 mM)?
A: The value was 0.00 nmol/h/mg.

Q: And the “Brainiac activity with substrate” value ([2]; substrate 20 mM)?
A: Its value is 0.05 nmol/h/mg.

Q: `C[C@@H]1O[C@@H](Oc2ccc([N+](=O)[O-])cc2)[C@@H](O)[C@H](O)[C@@H]1O` [L-Fucα1-pNph] was tested. Which “Acceptor for Fringe, in words” value [3] did it give?
A: Its value is “did not act as acceptors”.

Q: What about the “Brainiac activity with substrate” value ([2]; substrate 2 mM) of the same molecule?
A: The value was 0.02 nmol/h/mg.

Q: What about the “Brainiac activity with substrate” value ([2]; substrate 20 mM) of the same molecule?
A: Its value is 0.03 nmol/h/mg.

Q: How did the “Acceptor for Fringe, in words” value [3] turn out when `C[C@@H]1O[C@H](Sc2ccc([N+](=O)[O-])cc2)[C@@H](O)[C@H](O)[C@@H]1O` [β-L-Fuc-1-thio-p-Nph] was run?
A: The value was “did not act as acceptors”.

Q: For Galβ1-4Glcβ1-Cer, which “Glycolipid substrate for Brainiac, in words” value [4] is on record?
A: The value was “served as a substrate”.

Q: What about the “Glycolipid used by human β3GnT2, in words” value [5] of the same molecule?
A: The value was “use Lac-Cer”.

Q: How did the “Glycolipid substrate for Brainiac, in words” value [4] turn out when Manβ1-4Glcβ1-Cer was run?
A: Its value is “efficient substrate”.

Q: And the “Glycolipid used by human β3GnT2, in words” value [5]?
A: Its value is “not Mac-Cer”.

B1: Fringe-NNN: Fringe-myc with amino acids D236, 237 and 238 converted to asparagine residues (protein, UniProt Q24342 1-412, looked up, variant D236N D237N D238N)
Fringe glycosyltransferase: MMSLTVLSPPQRFKRILQAMMLAVAVVYMTLLLYQSAYGYPGIQVPHSQVDALASEAVTTHRDQLLQDYVQSSTPTQPGAGAPAASPTTVIIRKDIRSFNFSDIEVSERPTATLLTELARRSRNGELLRDLSQRAVTATPQPPVTELDDIFISVKTTKNYHDTRLALIIKTWFQLARDQTWFFTDTDDHYYQEKTKGHLINTKCSQGHFRKALCCKMSAELDVFLESGKKWFCHFNNNNYVNVPRLVKLLDEYSPSVDWYLGKPSISSPLEIHLDSKNTTTNKKITFWFATGGAGFCLSRALTLKMLPIAGGGKFISIGDKIRFPDDVTMGFIIEHLLKVPLTVVDNFHSHLEPMEFIRQDTFQDQVSFSYAHMKNQWNVIKVDGFDMKTDPKRFYSLHCQLFPYFSFCPPR
modifications: C-terminal myc tag
notes: Fringe-myc with amino acids D236, 237 and 238 converted to asparagine residues
Q: Which “Effect on Delta-AP binding, in words” value [6] does the source give for B1 here?
A: The value was “did not increase Delta-AP binding above background levels”.

Q: And the “Effect on Delta-AP binding, in words” value ([6]; listed as Fringe-NNN-Myc)?
A: The value was “no activity”.

Q: And the “Effect on Wingless expression / Notch activation in wing disc, in words” value [7]?
A: Its value is “did not cause Notch activation in the ventral compartment”.
